Reference: patent US11173151B2, “Substituted triazole derivatives and uses thereof” (BAYER AKTIENGESELLSCHAFT, priority 2017, dated 2021)

Experiments:
human V1a receptor = target: T1, human V1a receptor (Homo sapiens, UniProt P37288); experiment: Cellular in vitro assay for determining vasopressin receptor activity, V1a receptor cell line (CHO, aequorin luminescence); type: cell-based; conditions: for IC50: CHO cell line transfected with human V1a receptor, [Arg]-vasopressin at EC50 concentration, read-out: IC50 hV1a; for ratio IC50 hV2/hV1a: selectivity ratio IC50 hV2 / IC50 hV1a
T1 construct: expressed in transfected cells; host or cells: CHO K1 (ATCC), also stably transfected with a modified aequorin
T1 sequence (P37288 whole entry): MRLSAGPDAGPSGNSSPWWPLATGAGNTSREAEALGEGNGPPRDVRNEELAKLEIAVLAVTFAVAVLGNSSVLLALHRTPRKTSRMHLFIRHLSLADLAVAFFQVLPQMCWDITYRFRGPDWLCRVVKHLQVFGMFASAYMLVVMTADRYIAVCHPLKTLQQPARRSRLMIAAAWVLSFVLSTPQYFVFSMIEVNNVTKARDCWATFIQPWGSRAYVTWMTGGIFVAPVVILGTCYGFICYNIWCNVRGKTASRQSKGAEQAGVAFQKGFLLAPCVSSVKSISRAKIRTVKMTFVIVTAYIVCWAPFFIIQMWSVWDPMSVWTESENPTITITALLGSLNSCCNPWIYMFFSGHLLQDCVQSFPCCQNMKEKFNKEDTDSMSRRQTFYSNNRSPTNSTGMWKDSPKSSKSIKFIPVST
Procedure, shortened: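 Cells were plated the day before in medium containing 5 μg/ml coelenterazine and kept at 37° C. Compounds at various concentrations were then added for 10 minutes. Next, [Arg]-vasopressin at EC50 was applied and light output recorded at once, yielding IC50.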

human V2 receptor = target: T2, human V2 receptor (Homo sapiens, UniProt P30518); experiment: Cellular in vitro assay for determining vasopressin receptor activity, V2 receptor cell line (CHO, CRE-luciferase); type: cell-based; conditions: CHO cell line transfected with human V2 receptor; [Arg8]-vasopressin at EC50 concentration, 3 hours; read-out: IC50 hV2
T2 construct: expressed in transfected cells; host or cells: CHO K1 (ATCC) expressing firefly luciferase under a CRE-responsive promoter
T2 sequence (P30518 whole entry): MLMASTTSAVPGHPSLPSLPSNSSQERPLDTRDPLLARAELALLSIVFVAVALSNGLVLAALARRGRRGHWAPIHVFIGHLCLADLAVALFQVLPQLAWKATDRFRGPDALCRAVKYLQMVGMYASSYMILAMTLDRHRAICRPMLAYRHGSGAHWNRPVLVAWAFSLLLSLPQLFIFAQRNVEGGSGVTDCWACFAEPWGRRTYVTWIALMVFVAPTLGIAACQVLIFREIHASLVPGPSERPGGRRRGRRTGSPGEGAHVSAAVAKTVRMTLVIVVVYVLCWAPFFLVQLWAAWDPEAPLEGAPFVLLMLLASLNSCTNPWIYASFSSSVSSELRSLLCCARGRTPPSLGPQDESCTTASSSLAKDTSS

For COCC(=O)Nc1cccnc1-n1cnc(Cn2nc(-c3ccc(Cl)cc3)n(C[C@H](O)C(F)(F)F)c2=O)n1 [Example 40, N-{2-[3-({3-(4-Chlorophenyl)-5-oxo-4-[(2S)-3,3,3-trifluoro-2-hydroxypropyl]-4,5-dihydro-1H-1,2,4-triazol-1-yl}methyl)-1H-1,2,4-triazol-1-yl]pyridin-3-yl}-2-methoxyacetamide], the IC50 (human V1a receptor) was 25.5 nM, the “ratio IC50 hV2/hV1a” value (human V1a receptor) was 13.7 and the IC50 (human V2 receptor) was 350 nM.
O=C(Nc1cccnc1-n1cnc(Cn2nc(-c3ccc(Cl)cc3)n(C[C@H](O)C(F)(F)F)c2=O)n1)C1CC1 [Example 44, N-{2-[3-({3-(4-Chlorophenyl)-5-oxo-4-[(2S)-3,3,3-trifluoro-2-hydroxypropyl]-4,5-dihydro-1H-1,2,4-triazol-1-yl}methyl)-1H-1,2,4-triazol-1-yl]pyridin-3-yl}cyclopropanecarboxamide] was tested, and the IC50 (human V1a receptor) was 4.25 nM, the “ratio IC50 hV2/hV1a” value (human V1a receptor) was 84.7 and the IC50 (human V2 receptor) was 360 nM.
O=C(CC1CC1)Nc1cccnc1-n1cnc(Cn2nc(-c3ccc(Cl)cc3)n(C[C@H](O)C(F)(F)F)c2=O)n1 [Example 46, N-{2-[3-({3-(4-Chlorophenyl)-5-oxo-4-[(2S)-3,3,3-trifluoro-2-hydroxypropyl]-4,5-dihydro-1H-1,2,4-triazol-1-yl}methyl)-1H-1,2,4-triazol-1-yl]pyridin-3-yl}-2-cyclopropylacetamide] was tested, and the IC50 (human V1a receptor) was 32 nM, the “ratio IC50 hV2/hV1a” value (human V1a receptor) was 49.0 and the IC50 (human V2 receptor) was 1570 nM.
For O=C(Nc1cccnc1-n1cnc(Cn2nc(-c3ccc(Cl)cc3)n(C[C@H](O)C(F)(F)F)c2=O)n1)C1(C(F)(F)F)CC1 [Example 47, N-{2-[3-({3-(4-Chlorophenyl)-5-oxo-4-[(2S)-3,3,3-trifluoro-2-hydroxypropyl]-4,5-dihydro-1H-1,2,4-triazol-1-yl}methyl)-1H-1,2,4-triazol-1-yl]pyridin-3-yl}-1-(trifluoromethyl)cyclopropanecarboxamide], the IC50 (human V1a receptor) was 7 nM, the “ratio IC50 hV2/hV1a” value (human V1a receptor) was 40.5 and the IC50 (human V2 receptor) was 283 nM.
With O=C(Nc1cccnc1-n1cnc(Cn2nc(-c3ccc(Cl)cc3)n(C[C@H](O)C(F)(F)F)c2=O)n1)C1CC(F)(F)C1 [Example 48, N-{2-[3-({3-(4-Chlorophenyl)-5-oxo-4-[(2S)-3,3,3-trifluoro-2-hydroxypropyl]-4,5-dihydro-1H-1,2,4-triazol-1-yl}methyl)-1H-1,2,4-triazol-1-yl]pyridin-3-yl}-3,3-difluorocyclobutanecarboxamide] the IC50 (human V1a receptor) was 7.05 nM, the “ratio IC50 hV2/hV1a” value (human V1a receptor) was 79.0 and the IC50 (human V2 receptor) was 557 nM.
With CS(=O)(=O)CC(=O)Nc1cccnc1-n1cnc(Cn2nc(-c3ccc(Cl)cc3)n(C[C@H](O)C(F)(F)F)c2=O)n1 [Example 49, N-{2-[3-({3-(4-Chlorophenyl)-5-oxo-4-[(2S)-3,3,3-trifluoro-2-hydroxypropyl]-4,5-dihydro-1H-1,2,4-triazol-1-yl}methyl)-1H-1,2,4-triazol-1-yl]pyridin-3-yl}-2-(methylsulfonyl)acetamide] the IC50 (human V1a receptor) was 4.8 nM, the “ratio IC50 hV2/hV1a” value (human V1a receptor) was 230.2 and the IC50 (human V2 receptor) was 1100 nM.
In the case of CS(=O)(=O)NCC(=O)Nc1cccnc1-n1cnc(Cn2nc(-c3ccc(Cl)cc3)n(C[C@H](O)C(F)(F)F)c2=O)n1 [Example 53, N-{2-[3-({3-(4-Chlorophenyl)-5-oxo-4-[(2S)-3,3,3-trifluoro-2-hydroxypropyl]-4,5-dihydro-1H-1,2,4-triazol-1-yl}methyl)-1H-1,2,4-triazol-1-yl]pyridin-3-yl}-N^2-(methylsulfonyl)glycinamide], the IC50 (human V1a receptor) is reported as 31.5 nM, the “ratio IC50 hV2/hV1a” value (human V1a receptor) is reported as 71.4 and the IC50 (human V2 receptor) is reported as 2250 nM.
O=C(Nc1cccnc1-n1cnc(Cn2nc(-c3ccc(Cl)cc3)n(C[C@H](O)C(F)(F)F)c2=O)n1)C1CC1F (stereo partly drawn) [Example 54, N-{2-[3-({3-(4-Chlorophenyl)-5-oxo-4-[(2S)-3,3,3-trifluoro-2-hydroxypropyl]-4,5-dihydro-1H-1,2,4-triazol-1-yl}methyl)-1H-1,2,4-triazol-1-yl]pyridin-3-yl}-2-fluorocyclopropanecarboxamide] was tested, and the IC50 (human V1a receptor) was 4.5 nM, the “ratio IC50 hV2/hV1a” value (human V1a receptor) was 90.4 and the IC50 (human V2 receptor) was 407 nM.
O=C(Nc1cccnc1-n1cnc(Cn2nc(-c3ccc(Cl)cc3)n(C[C@H](O)C(F)(F)F)c2=O)n1)C1(F)CC1 [Example 57, N-{2-[3-({3-(4-Chlorophenyl)-5-oxo-4-[(2S)-3,3,3-trifluoro-2-hydroxypropyl]-4,5-dihydro-1H-1,2,4-triazol-1-yl}methyl)-1H-1,2,4-triazol-1-yl]pyridin-3-yl}-1-fluorocyclopropanecarboxamide] was tested, and the IC50 (human V1a receptor) was 13 nM, the “ratio IC50 hV2/hV1a” value (human V1a receptor) was 38.7 and the IC50 (human V2 receptor) was 503 nM.
In the case of O=C(Nc1cccnc1-n1cnc(Cn2nc(-c3ccc(Cl)cc3)n(C[C@H](O)C(F)(F)F)c2=O)n1)C1CS(=O)(=O)C1 [Example 58, N-{2-[3-({3-(4-Chlorophenyl)-5-oxo-4-[(2S)-3,3,3-trifluoro-2-hydroxypropyl]-4,5-dihydro-1H-1,2,4-triazol-1-yl}methyl)-1H-1,2,4-triazol-1-yl]pyridin-3-yl}thietane-3-carboxamide 1,1-dioxide], the IC50 (human V1a receptor) is reported as 19.5 nM, the “ratio IC50 hV2/hV1a” value (human V1a receptor) is reported as 58.3 and the IC50 (human V2 receptor) is reported as 1140 nM.
With O=C(Nc1cccnc1-n1cnc(Cn2nc(-c3ccc(Cl)cc3)n(C[C@H](O)C(F)(F)F)c2=O)n1)OCC(F)(F)F [Example 62, 2,2,2-trifluoroethyl {2-[3-({3-(4-chlorophenyl)-5-oxo-4-[(2S)-3,3,3-trifluoro-2-hydroxypropyl]-4,5-dihydro-1H-1,2,4-triazol-1-yl}methyl)-1H-1,2,4-triazol-1-yl]pyridin-3-yl}carbamate] the IC50 (human V1a receptor) was 19.5 nM, the “ratio IC50 hV2/hV1a” value (human V1a receptor) was 49.1 and the IC50 (human V2 receptor) was 957 nM.
With O=C(NCC(F)(F)F)Nc1cccnc1-n1cnc(Cn2nc(-c3ccc(Cl)cc3)n(C[C@H](O)C(F)(F)F)c2=O)n1 [Example 63, 1-{2-[3-({3-(4-Chlorophenyl)-5-oxo-4-[(2S)-3,3,3-trifluoro-2-hydroxypropyl]-4,5-dihydro-1H-1,2,4-triazol-1-yl}methyl)-1H-1,2,4-triazol-1-yl]pyridin-3-yl}-3-(2,2,2-trifluoroethyl)urea] the IC50 (human V1a receptor) was 3.15 nM, the “ratio IC50 hV2/hV1a” value (human V1a receptor) was 366.1 and the IC50 (human V2 receptor) was 1150 nM.
In the case of O=c1n(Cc2ncn(-c3cccnc3N3CCOCC3)n2)nc(-c2ccc(Cl)cc2)n1C[C@H](O)C(F)(F)F [Example 64, 5-(4-Chlorophenyl)-2-({1-[2-(morpholin-4-yl)pyridin-3-yl]-1H-1,2,4-triazol-3-yl}methyl)-4-[(2S)-3,3,3-trifluoro-2-hydroxypropyl]-2,4-dihydro-3H-1,2,4-triazol-3-one], the IC50 (human V1a receptor) is reported as 16 nM, the “ratio IC50 hV2/hV1a” value (human V1a receptor) is reported as 33.4 and the IC50 (human V2 receptor) is reported as 535 nM.
With CC(C)(N)CNc1ncccc1-n1cnc(Cn2nc(-c3ccc(Cl)cc3)n(C[C@H](O)C(F)(F)F)c2=O)n1 [Example 65, 2-[(1-{2-[(2-Amino-2-methylpropyl)amino]pyridin-3-yl}-1H-1,2,4-triazol-3-yl)methyl]-5-(4-chlorophenyl)-4-[(2S)-3,3,3-trifluoro-2-hydroxypropyl]-2,4-dihydro-3H-1,2,4-triazol-3-one] the IC50 (human V1a receptor) was 190 nM, the “ratio IC50 hV2/hV1a” value (human V1a receptor) was 2.0 and the IC50 (human V2 receptor) was 380 nM.
For NC(=O)[C@H]1CCCN1c1ncccc1-n1cnc(Cn2nc(-c3ccc(Cl)cc3)n(C[C@H](O)C(F)(F)F)c2=O)n1 [Example 66, 1-{3-[3-({3-(4-Chlorophenyl)-5-oxo-4-[(2S)-3,3,3-trifluoro-2-hydroxypropyl]-4,5-dihydro-1H-1,2,4-triazol-1-yl}methyl)-1H-1,2,4-triazol-1-yl]pyridin-2-yl}-D-prolinamide], the IC50 (human V1a receptor) was 43.5 nM, the “ratio IC50 hV2/hV1a” value (human V1a receptor) was 8.4 and the IC50 (human V2 receptor) was 363 nM.
For CC(C)(O)CNc1ncccc1-n1cnc(Cn2nc(-c3ccc(Cl)cc3)n(C[C@H](O)C(F)(F)F)c2=O)n1 [Example 67, 5-(4-Chlorophenyl)-2-[(1-{2-[(2-hydroxy-2-methylpropyl)amino]pyridin-3-yl}-1H-1,2,4-triazol-3-yl)methyl]-4-[(2S)-3,3,3-trifluoro-2-hydroxypropyl]-2,4-dihydro-3H-1,2,4-triazol-3-one], the IC50 (human V1a receptor) was 76.5 nM, the “ratio IC50 hV2/hV1a” value (human V1a receptor) was 2.0 and the IC50 (human V2 receptor) was 157 nM.
NC(=O)[C@@H]1CCCN1c1ncccc1-n1cnc(Cn2nc(-c3ccc(Cl)cc3)n(C[C@H](O)C(F)(F)F)c2=O)n1 [Example 68, 1-{3-[3-({3-(4-Chlorophenyl)-5-oxo-4-[(2S)-3,3,3-trifluoro-2-hydroxypropyl]-4,5-dihydro-1H-1,2,4-triazol-1-yl}methyl)-1H-1,2,4-triazol-1-yl]pyridin-2-yl}-L-prolinamide] was tested, and the IC50 (human V1a receptor) was 63.5 nM, the “ratio IC50 hV2/hV1a” value (human V1a receptor) was 6.9 and the IC50 (human V2 receptor) was 437 nM.
With O=c1n(Cc2ncn(-c3cccnc3NCCC(F)(F)F)n2)nc(-c2ccc(Cl)cc2)n1C[C@H](O)C(F)(F)F [Example 69, 5-(4-Chlorophenyl)-4-[(2S)-3,3,3-trifluoro-2-hydroxypropyl]-2-[(1-{2-[(3,3,3-trifluoropropyl)amino]pyridin-3-yl}-1H-1,2,4-triazol-3-yl)methyl]-2,4-dihydro-3H-1,2,4-triazol-3-one] the IC50 (human V1a receptor) was 235 nM, the “ratio IC50 hV2/hV1a” value (human V1a receptor) was 1.4 and the IC50 (human V2 receptor) was 320 nM.
In the case of O=C1CCC(CNc2ncccc2-n2cnc(Cn3nc(-c4ccc(Cl)cc4)n(C[C@H](O)C(F)(F)F)c3=O)n2)N1 (stereo partly drawn) [Example 70, 5-(4-Chlorophenyl)-2-{[1-(2-{[(5-oxopyrrolidin-2-yl)methyl]amino}pyridin-3-yl)-1H-1,2,4-triazol-3-yl]methyl}-4-[(2S)-3,3,3-trifluoro-2-hydroxypropyl]-2,4-dihydro-3H-1,2,4-triazol-3-one], the IC50 (human V1a receptor) is reported as 150 nM, the “ratio IC50 hV2/hV1a” value (human V1a receptor) is reported as 4.6 and the IC50 (human V2 receptor) is reported as 690 nM.
